Where two headings read alike, the source gives them in different places.
Experiments:
[1] = CellTiter-Glo cytotoxicity in MonoMac-6 cells; assay type: cell-based; conditions: human, 24 h incubation
Experimental: (§1) Prior to evaluation of the compounds in cell-based assays, we measured their cytotoxicity in human monocytic THP-1Blue and MonoMac-6 cells during a 24 h incubation. […] Thus, these compounds were all excluded from subsequent testing in these cell lines.
(§2) Cytotoxicity was analyzed with a CellTiter-Glo Luminescent Cell Viability Assay Kit from Promega (Madison, WI, USA), according to the manufacturer’s protocol. Cells were treated with the compound under investigation and cultivated for 24 h. After treatment, the cells were allowed to equilibrate to room temperature for 30 min, substrate was added, and the luminescence measured using a Fluoroscan Ascent FL (Thermo Fisher Scientific, Waltham, MA, USA). The cell IC50 values were calculated by plotting the percentage inhibition against the logarithm of inhibitor concentration (at least five points).

JNK1 [2] = target: T1, JNK1 (Homo sapiens, UniProt P45983); experiment: KINOMEscan JNK1 binding (Kd); conditions: 12-point series, max 33 μM, duplicate
T1 construct: purchased Eurofins Pharma Discovery (KINOMEscan service)
T1 sequence (P45983 whole entry): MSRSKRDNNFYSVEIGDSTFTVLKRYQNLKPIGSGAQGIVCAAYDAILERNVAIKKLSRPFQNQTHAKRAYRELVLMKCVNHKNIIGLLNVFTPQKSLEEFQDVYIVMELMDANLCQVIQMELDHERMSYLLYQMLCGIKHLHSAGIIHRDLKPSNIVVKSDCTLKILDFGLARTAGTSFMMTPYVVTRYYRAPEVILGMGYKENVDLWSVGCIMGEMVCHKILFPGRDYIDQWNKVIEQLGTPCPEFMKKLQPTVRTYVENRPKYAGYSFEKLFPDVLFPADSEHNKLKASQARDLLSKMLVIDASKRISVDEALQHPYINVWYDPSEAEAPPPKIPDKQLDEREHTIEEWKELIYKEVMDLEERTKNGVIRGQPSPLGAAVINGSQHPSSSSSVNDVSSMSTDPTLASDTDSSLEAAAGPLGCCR
Experimental: (§3) All compounds were evaluated for their ability to bind to JNK1-3 using the KINOMEscan platform.
(§4) Compounds were submitted for dissociation constant (Kd) determination using KINOMEscan (Eurofins Pharma Discovery, San Diego, CA, USA), as described previously. […] Primary screening at fixed concentrations of compounds was performed in duplicate. To determine dissociation constant Kd, a 12-point half-log dilution series (a maximum concentration of 33 μM) was used.

[3] = tested on: c-Jun phosphorylation in MonoMac-6 cells; experiment: LPS-induced c-Jun (Ser63) phosphorylation in MonoMac-6 cells (sandwich ELISA); assay type: cell-based, human; conditions: 30 min pretreatment, LPS 500 ng/mL
Experimental: After 30 min pretreatment with the compounds, the cells were stimulated with LPS (500 ng/mL), and the level of phospho-c-Jun (S63) was determined by a sandwich ELISA.
MonoMac-6 cell lysates were prepared using Cell Lysis Buffer (Cell Signaling Technology, Danvers, MA, USA). The phospho-c-Jun content was measured with ELISA using the PathScan Phospho-c-Jun (Ser63) Sandwich ELISA Kit II (Cell Signaling Technology, USA), and the data are shown as the ratio of phospho-c-Jun vs. total c-Jun, which was measured using the FastScanTM Total c-Jun ELISA kit (Cell Signaling Technology).
Figure 3 Effect of the compounds 4d, 4e, 4h, and IQ-1S on LPS-induced c-Jun phosphorylation. Human MonoMac-6 monocytic cells were pretreated with the indicated concentrations of compounds or 0.5% DMSO for 30 min, followed by treatment with LPS (500 ng/mL) or control buffer for another 30 min. The cells were lysed, and the lysates were analyzed with ELISA for phospho-c-Jun (Ser63) and total c-Jun. The data are represented as the ratio of phospho-c-Jun to total c-Jun. The data are presented as the mean ± S.D. of triplicate samples from one experiment that is representative of three independent experiments. * Significant differences (p < 0.05) with LPS control.

JNK2 [4] = target: T2, JNK2 (Homo sapiens, UniProt P45984); experiment: KINOMEscan JNK2 binding (Kd); conditions: 12-point series, max 33 μM, duplicate
T2 construct: purchased Eurofins Pharma Discovery (KINOMEscan service)
T2 sequence (P45984 whole entry): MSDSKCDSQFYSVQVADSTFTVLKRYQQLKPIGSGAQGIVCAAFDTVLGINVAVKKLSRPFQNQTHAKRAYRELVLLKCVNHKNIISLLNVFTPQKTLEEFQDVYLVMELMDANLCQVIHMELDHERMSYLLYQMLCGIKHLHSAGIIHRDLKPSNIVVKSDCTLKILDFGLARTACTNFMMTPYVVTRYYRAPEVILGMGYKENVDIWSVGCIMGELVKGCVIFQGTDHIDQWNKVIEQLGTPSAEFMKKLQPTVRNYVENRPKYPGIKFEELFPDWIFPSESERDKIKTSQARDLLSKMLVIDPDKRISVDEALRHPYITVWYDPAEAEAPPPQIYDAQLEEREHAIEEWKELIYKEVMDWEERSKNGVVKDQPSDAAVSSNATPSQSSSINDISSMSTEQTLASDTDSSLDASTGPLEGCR
Experimental: as §3, §4

[5] = tested on: NF-κB/AP-1 transcriptional activity in THP-1Blue cells; experiment: LPS-induced NF-κB/AP-1 alkaline phosphatase reporter assay in THP-1Blue cells; assay type: cell-based; conditions: Homo sapiens, 30 min pretreatment, 250 ng/mL LPS, 24 h; read-out: AP Production in THP–1Blue IC50
Experimental: Activation of AP-1/NF-κB was measured using an alkaline phosphatase reporter gene assay in THP1-Blue cells. Human monocytic THP-1Blue cells were stably transfected with a secreted embryonic alkaline phosphatase gene that was under the control of a promoter inducible by AP-1/NF-κB.
(§5) Figure 2 Effect of compounds 4d and 4e on NF-κB/AP-1 activity and IL-6 production. Panel (A) THP-1Blue cells were pretreated with the indicated compounds or DMSO for 30 min, followed by addition of 250 ng/mL LPS or buffer for 24 h. […] Panel (B) MonoMac-6 cells were pretreated with the indicated compounds or DMSO for 30 min, followed by addition of 250 ng/mL LPS or buffer for 24 h. Production of IL-6 in the supernatants was evaluated with ELISA. The data in each panel are presented as the mean ± S.D. of triplicate samples from one experiment that is representative of three independent experiments.

[6] = CellTiter-Glo cytotoxicity in THP-1Blue cells; assay type: cell-based; conditions: human, 24 h incubation
Experimental: as §1, §2

[7] = tested on: IL-6 production in MonoMac-6 cells; experiment: LPS-induced IL-6 production in MonoMac-6 cells (ELISA); assay type: cell-based, human; conditions: 250 ng/mL LPS, 24 h
Experimental: All cells were cultured at 37 °C in a humidified atmosphere containing 5% CO2. Human THP-1Blue monocytic cells obtained from InvivoGen (San Diego, CA, USA) were cultured in RPMI 1640 medium (Mediatech Inc., Herndon, VA, USA) supplemented with 10% (v/v) fetal bovine serum (FBS), 4.5 g/L glucose, 100 μg/mL streptomycin, 100 U/mL penicillin, 100 μg/mL phleomycin (Zeocin), and 10 μg/mL blasticidin S. Human monocyte-macrophage MonoMac-6 cells (Deutsche Sammlung von Mikroorganismen und Zellkulturen GmbH, Braunschweig, Germany) were grown in RPMI 1640 medium supplemented with 10% (v/v) FBS, 10 μg/mL bovine insulin, 100 μg/mL streptomycin, and 100 U/mL penicillin.
as §5, with “Panel” for “Figure 2 Effect of compounds 4d and 4e on NF-κB/AP-1 activity and IL-6 production. Panel”

JNK3 [8] = target: T3, JNK3 (Homo sapiens, UniProt P53779); experiment: KINOMEscan JNK3 binding (Kd); conditions: for Kd: KINOMEscan, 12-point series, max 33 μM, duplicate; for Selectivity Index JNK1/JNK3 / Selectivity Index JNK2/JNK3: ratio of Kd values
T3 construct: purchased Eurofins Pharma Discovery (KINOMEscan service)
T3 sequence (P53779 whole entry): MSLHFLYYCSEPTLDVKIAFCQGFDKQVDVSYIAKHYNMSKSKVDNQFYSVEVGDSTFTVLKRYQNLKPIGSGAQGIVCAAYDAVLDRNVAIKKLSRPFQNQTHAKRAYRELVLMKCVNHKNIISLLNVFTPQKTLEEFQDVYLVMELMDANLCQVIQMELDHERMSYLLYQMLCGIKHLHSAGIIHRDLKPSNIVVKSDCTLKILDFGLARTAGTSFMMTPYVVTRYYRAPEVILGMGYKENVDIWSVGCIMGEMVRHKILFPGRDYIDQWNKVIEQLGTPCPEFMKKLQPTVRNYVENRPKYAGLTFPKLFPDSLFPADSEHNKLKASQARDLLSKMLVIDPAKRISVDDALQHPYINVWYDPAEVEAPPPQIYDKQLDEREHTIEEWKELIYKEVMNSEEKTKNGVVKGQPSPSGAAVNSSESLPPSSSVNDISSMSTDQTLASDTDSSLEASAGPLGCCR
Experimental: as §3, §4

JNK3 [9] = target: T3, JNK3; conditions: cited from earlier work; for Kd: Figure 1, ref [49],[50],[51]
JNK2 [10] = target: T2, JNK2; conditions: Figure 1; ref [49],[50],[51]; cited from earlier work
JNK1 [11] = target: T1, JNK1; conditions: Figure 1; ref [49],[50],[51]; cited from earlier work
[12] = Homo sapiens, MONO-MAC-6, 30 min pretreatment

| Structure (SMILES) | Kd (JNK1 [2]) | Kd (JNK2 [4]) | IC50 [5] | melting point | IC50 ([7]; 30 min pretreatment) | IC50 [7, 12] | selectivity index (JNK3 versus JNK1 and JNK2) (JNK3 [8]) | Kd (JNK3 [8]) | Selectivity Index JNK1/JNK3 (JNK3 [8]) | Selectivity Index JNK2/JNK3 (JNK3 [8]) | IC50 at 24 h [1] | LPS-induced c-Jun phosphorylation (phospho-c-Jun S63 / total c-Jun) [3] | IC50 at 24 h [6] | Kd (JNK3 [9]) | Kd (JNK2 [10]) | Kd (JNK1 [11]) | selectivity for JNK3 binding versus JNK1/JNK2 (JNK3 [9]; ref [49]) |
| --- | --- | --- | --- | --- | --- | --- | --- | --- | --- | --- | --- | --- | --- | --- | --- | --- | --- |
| [Na+].[O-]/N=C1/c2ccccc2-c2nc3ccccc3nc21 [IQ-1S, reference compound] | – | – | – | – | – | – | – | – | – | – | – | dose-dependently inhibited | – | – | – | – | – |
| O/N=C1\c2ccccc2-c2nc3cc(F)c(F)cc3nc21 [IQ–4f] | – | – | – | – | – | – | – | – | – | – | – | – | – | 0.52 µM | > 30 µM | 0.17 µM | – |
| O/N=C1\c2ccccc2-c2nc3ccc(Cl)cc3nc21 [IQ–6i] | – | – | – | – | – | – | – | – | – | – | – | – | – | 0.71 µM | 21.5 µM | 1.1 µM | – |
| N#CCO/N=C1\c2ccccc2-n2c1nc1ccccc1c2=O [TRYP–1e] | – | – | – | – | – | – | – | – | – | – | – | – | – | 1.5 µM | 17.5 µM | 19.5 µM | ~ 10 fold |

More lines, main results first:

| Kd (JNK1 [2]) | Kd (JNK2 [4]) | IC50 [5] | melting point | IC50 ([7]; 30 min pretreatment) | IC50 [7, 12] | selectivity index (JNK3 versus JNK1 and JNK2) (JNK3 [8]) | Kd (JNK3 [8]) | Selectivity Index JNK1/JNK3 (JNK3 [8]) | Selectivity Index JNK2/JNK3 (JNK3 [8]) | Structure (SMILES) | IC50 at 24 h [1] | LPS-induced c-Jun phosphorylation (phospho-c-Jun S63 / total c-Jun) [3] | IC50 at 24 h [6] | Kd (JNK3 [9]) | Kd (JNK2 [10]) | Kd (JNK1 [11]) | selectivity for JNK3 binding versus JNK1/JNK2 (JNK3 [9]; ref [49]) |
| --- | --- | --- | --- | --- | --- | --- | --- | --- | --- | --- | --- | --- | --- | --- | --- | --- | --- |
| > 30 µM | > 30 µM | 0.8 ± 0.3 µM | > 225 °C (dec.) | 0.7 ± 0.1 µM | < 1 µM | > 7 | 0.34 ± 0.03 µM | >100 | >100 | COc1ccc2c(c1)C(=NO)c1nc3ccccc3c(=O)n1-2 [Compound 4d, 8-Methoxyindolo[2,1-b]quinazolin-6,12-dione Oxime] | > 50 µM | dose-dependently inhibited | > 50 µM | – | – | – | – |
| > 30 µM | > 30 µM | 1.6 ± 0.1 µM | > 225 °C (dec.) | – | – | > 7 | 0.34 ± 0.04 µM | >100 | >100 | O=c1c2ccccc2nc2n1-c1ccc(-c3ccccc3)cc1C2=NO [Compound 4e, 8-Phenylindolo[2,1-b]quinazolin-6,12-dione Oxime] | > 50 µM | dose-dependently inhibited | > 50 µM | – | – | – | – |
| 0.67 ± 0.35 µM | 0.57 ± 0.12 µM | – | > 225 °C (dec.) | – | – | – | 0.23 ± 0.04 µM | 2.9 | 2.5 | Cc1ccc2c(c1)-n1c(nc3ccccc3c1=O)C2=NO [Compound 4h, 9-Methylindolo[2,1-b]quinazolin-6,12-dione Oxime] | > 50 µM | dose-dependently inhibited | > 50 µM | – | – | – | – |
| > 30 µM | > 30 µM | 4.6 ± 0.3 µM | 262 to 263 °C | – | 1.3 ± 0.4 µM | – | > 30 µM | – | – | COc1ccc2c(c1)C(=NO)c1nc3ccc(OC)cc3c(=O)n1-2 [Compound 4q, 2,8-Dimethoxylindolo[2,1-b]quinazolin-6,12-dione Oxime] | > 50 µM | – | > 50 µM | – | – | – | – |
| > 30 µM | > 30 µM | > 50 µM | > 300 °C (dec.) | – | > 50 µM | – | > 30 µM | – | – | O=c1c2c(Br)cccc2nc2n1-c1cccc(Br)c1C2=NO [Compound 4u, 1,7-Dibromoindolo[2,1-b]quinazolin-6,12-dione Oxime] | > 50 µM | – | > 50 µM | – | – | – | – |
| > 30 µM | > 30 µM | > 50 µM | 218 °C | – | > 50 µM | – | > 30 µM | – | – | CCOC(=O)CON=C1c2ccccc2-n2c1nc1ccccc1c2=O [Compound 5a, Ethyl 2-(((12-Oxoindolo[2,1-b]quinazolin-6(12H)-ylidene)amino)oxy)acetate] | > 50 µM | – | > 50 µM | – | – | – | – |
| 16.5 ± 0.7 µM | > 30 µM | > 50 µM | 211 °C | – | > 50 µM | – | > 30 µM | – | – | CCOC(=O)C(ON=C1c2ccccc2-n2c1nc1ccccc1c2=O)C(=O)OCC [Compound 5b, Diethyl 2-(((12-Oxoindolo[2,1-b]quinazolin-6(12H)-ylidene)amino)oxy)malonate] | > 50 µM | – | > 50 µM | – | – | – | – |
| 1.7 ± 0.4 µM | 2.8 ± 0.5 µM | 8.1 ± 2.2 µM | 197 °C | – | 12.4 ± 1.3 µM | – | 0.7 ± 0.12 µM | 2.4 | 4.0 | COC(=O)ON=C1c2ccccc2-n2c1nc1ccccc1c2=O [Compound 5c, 6-(((Methoxycarbonyl)oxy)imino)indolo[2,1-b]quinazolin-12(6H)-one] | > 50 µM | – | > 50 µM | – | – | – | – |
| 0.95 ± 0.03 µM | 1.6 ± 0.1 µM | 4.4 ± 1.6 µM | 210 °C | – | 7 ± 0.9 µM | – | 0.32 ± 0.06 µM | 3.0 | 5.0 | C#CCOC(=O)ON=C1c2ccccc2-n2c1nc1ccccc1c2=O [Compound 5d, 6-((((Prop-2-yn-1-yloxy)carbonyl)oxy)imino)indolo[2,1-b]quinazolin-12(6H)-one] | > 50 µM | – | > 50 µM | – | – | – | – |

From paper PMC10304880, “Novel Tryptanthrin Derivatives with Selectivity as c–Jun N–Terminal Kinase (JNK) 3 Inhibitors” (Molecules, 2023)
